Test results as given in patent publication US20120191039A1, “CARRIER LINKED PRAMIPEXOLE PRODRUGS” (ASCENDIS PHARMA A/S, priority 2009, published 2012).
Like-named read-outs stand apart in the source and are kept apart here. Blank lines part the entries; values can stand above or below the compound they belong to.

What was measured:
[1] = Release kinetics in vitro: hydrolysis in buffer at pH 7.4 and 37° C.; assay type: physicochemical; settings: sodium phosphate buffer; half time of release, 60 mM sodium phosphate, 3 mM EDTA, 0.01% Tween20, pH 7.4, 37° C.; read-out: t1/2 buffer A (pH 7.4) (converted)
Protocol: In vitro release sample was vortexed and centrifuged. An aliquot was taken from the supernatant, diluted with eluent (20 mM phosphate buffer pH 7.4, 150 mM NaCl) and assayed for pramipexole content by SEC as described above.
Release of drug molecule was effected by hydrolysis in buffer at pH 7.4 and 37° C.
9a, 9b, 9c, 9d, 9e, 11b, 20, 21, 22b, 23, 24b, 33, and 35 respectively, were dissolved in buffer (60 mM sodium phosphate, 3 mM EDTA, 0.01% Tween20, pH 7.4), solution was filtered through a 0.2 μm filter and incubated at 37° C. Samples were taken at time intervals and analyzed by RP-HPLC at 263 nm and 280 nm and ESI-MS. UV-signals correlating to linker conjugate molecules were integrated and plotted against incubation time. Curve-fitting software was applied to estimate the corresponding half time of release
16a, 16b, 26, 30, and 31 respectively, were suspended in buffer (60 mM sodium phosphate, 3 mM EDTA, 0.01% Tween20, pH 7.4) and incubated at 37° C. At time intervals samples were vortexed and centrifuged. Aliquots (10-50 μL) were taken from the supernatant solution, and analyzed by measurement of the absorption of released drug at 263 nm. Calculated amounts of released drug were plotted against incubation time. Alternatively, amount of released pramipexole was determined by size exclusion chromatography as described in “Materials and Methods”.
Curve-fitting software was applied to estimate the corresponding half time of release.

[2] = cited from earlier work

half-life [1]: 28.8 h
Compound: CCCN[C@H]1CCc2nc(NC(=O)CCC(=O)NCCSC3CC(=O)N(CCC(=O)NCCOCCOCCOCCOCCOCCOCCC(=O)NCC(N)=O)C3=O)sc2C1 (some centres unmarked) [Compound 9a]

half-life [1]: 88.8 h
Compound: CCCN[C@H]1CCc2nc(NC(=O)CCC(=O)NCCCCCCSC3CC(=O)N(CCC(=O)NCCOCCOCCOCCOCCOCCOCCC(=O)NCC(N)=O)C3=O)sc2C1 (some centres unmarked) [Compound 9b]

half-life [1]: 31.2 h
Compound: CCCN[C@H]1CCc2nc(NC(=O)COCC(=O)NCCCCCCSC3CC(=O)N(CCC(=O)NCCOCCOCCOCCOCCOCCOCCC(=O)NCC(N)=O)C3=O)sc2C1 (some centres unmarked) [Compound 9c]

half-life [1]: 26.4 h
Compound: CCCN[C@H]1CCc2nc(NC(=O)CNCC(=O)NCCCCCCSC3CC(=O)N(CCC(=O)NCCOCCOCCOCCOCCOCCOCCC(=O)NCC(N)=O)C3=O)sc2C1 (some centres unmarked) [Compound 9d]

half-life [1]: 103 h
Compound: CCCN[C@H]1CCc2nc(NC(=O)CNC(=O)NCCCCCCSC3CC(=O)N(CCC(=O)NCCOCCOCCOCCOCCOCCOCCC(=O)NCC(N)=O)C3=O)sc2C1 (some centres unmarked) [Compound 9e]

Compound: CCCN[C@H]1CCc2nc(N)sc2C1 [Pramipexole]
elimination half life ([2]; healthy subjects): 8 h | excretion ([2]; in vivo): mainly renal | metabolism ([2]; in vivo): negligible metabolism | protein bound ([2]; in vivo): Fifteen | volume of distribution ([2]; in vivo): 7 L/kg | absorption ([2]; oral administration): rapidly and completely absorbed | time to maximum plasma concentration ([2]; oral, empty stomach): 1 to 2 h | time to maximum plasma concentration ([2]; oral, with food): 3 to 4 h | Oral bioavailability ([2]; oral): over 90%
